21 compounds from PubChem BioAssay (NCI) can be followed below.

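Compound exposure: 48 hours, 5 concentrations, 96-well plates. The concentration for 50% growth inhibition is given as GI50. TGI: total growth inhibition.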 Where only a bound is given, the exact number is not on record here.

One assay has as its system HS 578T breast. Briefly: NCI tumour cell line growth inhibition, 48 h.
`COC(=O)C1=C(C)NC(C)=C(C(=O)OCCCN2CCC(c3ccccc3)(c3ccccc3)CC2)C1c1cccc([N+](=O)[O-])c1` (stereo not drawn) had a TGI of 4.57 µM.
In the case of `COc1ccc([C@H]2[C@@H](F)C(=O)N2c2cc(OC)c(OC)c(OC)c2)cc1F`, the GI50 was 0.295 µM and the TGI was greater than 100 µM.
In turn, `N=Nc1c(OC(=O)Nc2cccc(Cl)c2)[nH]c2ccccc12` came in with a TGI of 40 µM.
Same read-out and setting: under `CC1(C)C2CCC(=O)C1CC2` (stereo not drawn) stands greater than 100 µM.
On to `Fc1cc2[nH]ncc2c2c3c(c(-c4cn[nH]c4)nc12)CCCC3`, for which the GI50 was 0.624 µM and the TGI was 3.46 µM.
For `CCN(CC)c1ccc(-c2cc(-c3cc(OC)c(OC)c(OC)c3)nc(N3CCOCC3)c2C#N)cc1`, in that order: 0.507 µM and 12.2 µM.
Consider `C=C(Br)C(C)(Br)CCC(Br)C(C)(C)Cl` (stereo not drawn), for which the TGI amounted to 72 µM.
As to `O=C(CCc1nnc2sc(-c3ccc(Cl)cc3Cl)nn12)c1nc2ncccc2[nH]1`, the GI50 was 2.71 µM and the TGI was 8.02 µM.
On to `ClCc1cccc(Cn2cnc3ncnc(Cl)c32)c1`, for which the GI50 was 18.2 µM and the TGI was 42.3 µM.
In the same order, the values of `OCC#Cc1ccccc1C#Cc1ccccc1` are 18.3 µM and 43.7 µM.
For the compound `NS(=O)(=O)c1cc(Br)c(N=Nc2ccc(O)c3ncccc23)c(Br)c1`, the TGI was 78.5 µM.
On to `O=C(Nc1ccc(Cl)cc1)c1cccc(NC2=C(Cl)C(=O)N(Cc3ccccc3)C2=O)c1`, for which the GI50 is 13.2 µM and the TGI amounted to 46.3 µM.
For `O=C(/C=C/c1ccncc1)c1cc(Cl)ccc1O`, in that order: 39.5 µM and greater than 100 µM.
For `Cc1cc(/C=C/c2ccc3cc(N(C)C)ccc3[n+]2C)c(C)n1-c1ccccc1`, the GI50 was 0.361 µM and the TGI worked out at 9.56 µM.
In the same order, the values of `CC[C@H](Nc1ncnc2nc[nH]c12)c1oc2ccccc2c(=O)c1-c1cccc(F)c1` are 14.1 µM and 86.9 µM.
Consider `COc1cc(NCc2ccc3oc(=O)c(-c4ccccc4)nc3c2)cc(OC)c1OC`, for which the TGI was greater than 10 µM.
Turning to `COc1ccc(-c2nnc(COc3ccc(NC(=O)Nc4cc(C(F)(F)F)cc(C(F)(F)F)c4)cc3F)o2)cc1`, the GI50 is 1.99 µM and the TGI was 5.55 µM.
For the compound `COC1=CC(=O)C(C2CC(=O)c3c(O)cc(O)cc3O2)=CC1=O` (stereo not drawn), the TGI was found to be 83 µM.
`COc1cc(/C=C/c2cc(O)c(C(C)=O)c(O)c2)cc2c1O[C@]1(C)CC[C@@H](O)C(C)(C)[C@H]1C2`: the GI50 is 1.87 µM and the TGI was 16.2 µM.
`CC(C)C(C)/C=C\C(C)C1CCC2C3=CC=C4CC(O)CCC4(C)C3CCC21C` (stereo not drawn) came in with a TGI greater than 64.2 µM.
Consider `Cc1cc2c(cc1Cl)SC(N(N(C)C)S(=O)(=O)c1ccc(Cl)cc1)=NS2(=O)=O`, for which the GI50 is 23.4 µM and the TGI turned out to be 67.3 µM.

Another assay concerns IGROV1 ovarian. Briefly: NCI tumour cell line growth inhibition, 48 h.
In turn, `COC(=O)C1=C(C)NC(C)=C(C(=O)OCCCN2CCC(c3ccccc3)(c3ccccc3)CC2)C1c1cccc([N+](=O)[O-])c1` (stereo not drawn) yielded a TGI of 3.21 µM.
As to `COc1ccc([C@H]2[C@@H](F)C(=O)N2c2cc(OC)c(OC)c(OC)c2)cc1F`, the GI50 is 0.0946 µM and the TGI is greater than 100 µM.
In the case of `N=Nc1c(OC(=O)Nc2cccc(Cl)c2)[nH]c2ccccc12`, the TGI was 21.4 µM.
Same read-out and setting: for `CC1(C)C2CCC(=O)C1CC2` (stereo not drawn) the value was greater than 100 µM.
In the case of `Fc1cc2[nH]ncc2c2c3c(c(-c4cn[nH]c4)nc12)CCCC3`, the GI50 is 0.521 µM and the TGI was 9.56 µM.
As for `CCN(CC)c1ccc(-c2cc(-c3cc(OC)c(OC)c(OC)c3)nc(N3CCOCC3)c2C#N)cc1`, the GI50 was 2.83 µM and the TGI is greater than 100 µM.
Turning to `C=C(Br)C(C)(Br)CCC(Br)C(C)(C)Cl` (stereo not drawn), the TGI came out at 18.3 µM.
Regarding `O=C(CCc1nnc2sc(-c3ccc(Cl)cc3Cl)nn12)c1nc2ncccc2[nH]1`, the GI50 was 1.82 µM and the TGI was 3.8 µM.
For `ClCc1cccc(Cn2cnc3ncnc(Cl)c32)c1`, in that order: 3.38 µM and 13.8 µM.
In the same order, the values of `OCC#Cc1ccccc1C#Cc1ccccc1` are 30.3 µM and greater than 100 µM.
Compound `NS(=O)(=O)c1cc(Br)c(N=Nc2ccc(O)c3ncccc23)c(Br)c1` came in with a TGI greater than 100 µM.
As for `O=C(Nc1ccc(Cl)cc1)c1cccc(NC2=C(Cl)C(=O)N(Cc3ccccc3)C2=O)c1`, the GI50 is 2.61 µM and the TGI was 18.1 µM.
Turning to `O=C(/C=C/c1ccncc1)c1cc(Cl)ccc1O`, the GI50 is 15 µM and the TGI was found to be 38.5 µM.
For the compound `Cc1cc(/C=C/c2ccc3cc(N(C)C)ccc3[n+]2C)c(C)n1-c1ccccc1`, the GI50 is 0.3 µM and the TGI amounted to 3.92 µM.
`CC[C@H](Nc1ncnc2nc[nH]c12)c1oc2ccccc2c(=O)c1-c1cccc(F)c1`: the GI50 was 15.2 µM and the TGI worked out at 53.8 µM.
With `COc1cc(NCc2ccc3oc(=O)c(-c4ccccc4)nc3c2)cc(OC)c1OC`, the TGI is greater than 10 µM.
For `COc1ccc(-c2nnc(COc3ccc(NC(=O)Nc4cc(C(F)(F)F)cc(C(F)(F)F)c4)cc3F)o2)cc1`, the GI50 was 2.95 µM and the TGI was determined as 10.9 µM.
Turning to `COC1=CC(=O)C(C2CC(=O)c3c(O)cc(O)cc3O2)=CC1=O` (stereo not drawn), the TGI stood at 33.6 µM.
Take `COc1cc(/C=C/c2cc(O)c(C(C)=O)c(O)c2)cc2c1O[C@]1(C)CC[C@@H](O)C(C)(C)[C@H]1C2`: the GI50 is 6.44 µM and the TGI was determined as 69 µM.
The compound `CC(C)C(C)/C=C\C(C)C1CCC2C3=CC=C4CC(O)CCC4(C)C3CCC21C` (stereo not drawn) came in with a TGI greater than 54.3 µM.
Consider `Cc1cc2c(cc1Cl)SC(N(N(C)C)S(=O)(=O)c1ccc(Cl)cc1)=NS2(=O)=O`, for which the GI50 is 31.8 µM and the TGI is greater than 100 µM.
